Test results taken from US5596016A, “1,2-disubstituted aromatic chelates” (Albion International, Inc., priority 1994, dated 1997).
Entries after “also recorded” stand apart in the source; their conditions may differ.

Legend:
[1] = Iron excretion after oral dosing, sample weighed in grams (Table 2, headed Urine; evidently feces); format: in vivo, rats; conditions: for Urine: Total Mg Fe (per Total Gm Sample): oral, one gram sample of 15% iron
Experimental: (§1) Bioavailability: One gram samples of each of the above iron vanillin chelates and ferrous sulfate sales were administered orally to rats as a slurry consisting of one gram of sample contained in 4 ml of water. The samples were given via a syringe fitted with a balled needle and injected into the stomach of the animals. Each one gram sample of 15% iron would deliver 150 mg of Fe which is ten times the recommended daily allowance of iron for a human being of average size. Obviously, such a dosage is many times higher than required for the test animals considering that the rats weighed an average of about 125 grams each. One sample of two grams of chelate suspended as a slurry in 8 ml of water was found too be too much volume and overfilled the stomach of the rat resulting in the loss of some of the dosage.
(§2) The animals were observed over a two day (48 hour) period and their urine and feces were collected. At the end of the 48 hour period the animals were sacrificed and blood samples were taken.
(§3) There follows a comparison of the urine, feces and blood tests taken from the rats at 24 and 48 hours post dosage.

[2] = Iron excretion in urine after oral dosing, sample in ml (Table 3); format: in vivo, rats; conditions: one gram sample of 15% iron
Experimental: as §1, §2, §3

[3] = tested on: Rats; experiment: Observation of rats over 48 hours after oral dosing; format: in vivo
Experimental: as §1, §2

ferrous sulfate [FeSO4]
Urine: Total Mg Fe (per Total Gm Sample) ([1]; 24 hours): 1.18 Mg Fe | Urine: Total Mg Fe (per Total Gm Sample) ([1]; 48 hours): 61.6 Mg Fe | excretion of iron in the feces ([1]; after 48 hours, versus iron vanillate): much higher excretion of iron in the feces | Urine: Total Mg Fe (per Total Ml Sample) ([2]; 24 hours): 0.020 Mg Fe | Urine: Total Mg Fe (per Total Ml Sample) ([2]; 48 hours): 0.010 Mg Fe | appearance and behavior of rats ([3]; 48 hour period, one gram sample of 15% iron, oral): appeared listless and produced little urine and feces; also recorded: listless, non-reactive, retired and demonstrated abnormal breathing behavior | time without food or water consumption post dosage ([3]; one gram sample of 15% iron, oral): approximately 26 hours | time to hematuria following dosage ([3]; one of the ferrous sulfate fed rats): ≤ 2.5 h
